Experiments:
[1] = FAC binding constant; details: at 25° C.
Description: (§1) Details of the FAC method are described in Patent Document 2 filed by some of the present applicants, for example.
(§2) Binding constants (at 25° C.) of PhoSL, SRL, NSL and LSL belonging to the fucose α1→6 specific lectin for various sugar chains are shown in Tables 2 to 5.

[2] = FAC binding constant (Table 5 entry); details: Table 5: sugar chain having no fucose; at 25° C.
Description: as §1, §2

[3] = tested on: serum fucosylated PSA; assay: Sandwich ELISA, anti-PSA antibody and biotin-labeled lectin; format: binding, human; details: for Δ (=A − B): reaction value of Prostate cancer 4 minus Healthy 1; for lectin reaction value B of Healthy 1: serum of Healthy 1; for lectin reaction value A of Prostate cancer 4: serum of Prostate cancer 4, GS 6 (3 + 3)
Description: The anti-PSA antibody from which sugar chains had been removed was diluted to 5 μg/mL with PBS. 25 μL of this diluted solution was added to each well of an ELISA plate and allowed to stand at 37° C. for 12 hours, and then the additive solution was discarded.
150 μL of PBS containing 0.05% Tween 20 (product name: polyoxyethylene sorbitan monolaurate, from Nacalai Tesque, Inc.) was added to each well, and then the additive solution was discarded. This manipulation was repeated three times in total.
25 μL of 1% BSA/PBS was added to each well and allowed to stand at 37° C. for 1 hour, and then the additive solution was discarded.
150 μL of PBS containing 0.05% Tween 20 was added to each well, and then the additive solution was discarded. This manipulation was repeated three times in total.
To graph a calibration curve, 25 μL of the fucosylated PSA reference standard diluted with 1% BSA/PBS to a concentration of 0 to 200 ng/mL was added to each well and allowed to stand at room temperature for 1 hour, and then the additive solution was discarded. In addition, to detect the fucosylated PSA in the serum of the subject by the lectin, 25 μL of serum of “Healthy 1” and “Prostate cancer 4” 2-fold diluted with PBS was added to each well and allowed to stand at room temperature for 1 hour, and then the additive solution was discarded.
In Reference Example 1, 25 μL of a biotin-labeled PhoSL diluted to 0.1 μg/mL with 0.1% BSA/PBS (pH 7.4) was added to each well and allowed to stand at 4° C. for 30 minutes, and then the additive solution was discarded. In Example 1, 25 μL of a biotin-labeled PhoSL diluted to 0.1 μg/mL with 0.1% BSA/10-fold diluted PBS+glycine-NaOH (pH 9.6) was added to each well and allowed to stand at 4° C. for 30 minutes, and then the additive solution was discarded.
25 μL of a horseradish peroxidase (HRP)-labeled streptavidin solution (from Vector Laboratories, Inc., concentration: 0.4 μg/mL, in 1% BSA/PBS) was added to each well and allowed to stand at room temperature for 30 minutes, and then the additive solution was discarded.
25 μL of chromogenic substrate for HRP (product name: TMB, from Kirkegaard & Perry Laboratories, Inc.) was added to each well and allowed to stand at room temperature for 10 minutes.
25 μL of 1M phosphoric acid was added to terminate the reaction.
Absorbance (Ab) at 450 nm and 630 nm was measured using a plate reader, and a measurement (Ab450-630) was obtained.
A calibration curve was graphed by plotting signals (reaction values, Ab450-630) of the fucosylated PSA reference standard with the biotin-labeled PhoSL. A Signal (Ab450-630) of the biotin-labeled PhoSL corresponding to the fucosylated PSA concentration of 10 ng/mL was defined as 10 U/mL.
The signals of biotin-labeled PhoSL (Ab450-630) for the serum fucosylated PSA in the subject samples A were assigned to the calibration curve to calculate reaction values (unit: U/mL).
The PhoSL reaction values for the subject samples A were measured by the same operation as in Example 1. From the PhoSL reaction values, an average value and a median value were determined. Furthermore, a standard cutoff value (89.7 U/mL) was used to determine a detection rate (positive rate) of the prostate cancer patients, and a false detection rate (false positive rate) of the healthy persons.
Comparative Example 2 in Table 9 indicates results of detecting the serum fucosylated PSA using AAL (AAL reaction values) in the subject samples A. Specifically, in Reference Example 1, AAL reaction values were measured in the same manner as in Reference Example 1 except that the biotin-labeled PhoSL was replaced with a biotin-labeled AAL. A standard cut-off value for the AAL reaction values was 894.8 U/mL. As in Example 2, an average value, a median value, a positive rate and a false positive rate were determined from the AAL reaction values.

[4] = sugar chain having fucose other than α1→6 fucose

Binding constant for sugar chain No. 728 ([1]; Table 3: sugar chain having fucose other than α1→6 fucose): <1000 M⁻¹
Binding constant for sugar chain No. 419 [1, 4]: <1000 M⁻¹
Binding constant for sugar chain No. 420 [1, 4]: <1000 M⁻¹
Binding constant for sugar chain No. 718 [1, 4]: <1000 M⁻¹
Binding constant for sugar chain No. 719 [1, 4]: <1000 M⁻¹
Binding constant for sugar chain No. 720 [1, 4]: <1000 M⁻¹
Binding constant for sugar chain No. 721 [1, 4]: <1000 M⁻¹
Binding constant for sugar chain No. 722 [1, 4]: <1000 M⁻¹
Binding constant for sugar chain No. 723 [1, 4]: <1000 M⁻¹
Binding constant for sugar chain No. 726 [1, 4]: <1000 M⁻¹
Binding constant for sugar chain No. 727 [1, 4]: <1000 M⁻¹
Binding constant for sugar chain No. 729 [1, 4]: <1000 M⁻¹
Binding constant for sugar chain No. 730 [1, 4]: <1000 M⁻¹
Binding constant for sugar chain No. 731 [1, 4]: <1000 M⁻¹
Binding constant for sugar chain No. 739 [1, 4]: <1000 M⁻¹
Binding constant for sugar chain No. 909 [1, 4]: <1000 M⁻¹
Binding constant for sugar chain No. 910 [1, 4]: <1000 M⁻¹
Binding constant for sugar chain No. 931 [1, 4]: <1000 M⁻¹
Binding constant for sugar chain No. 932 [1, 4]: <1000 M⁻¹
Binding constant for sugar chain No. 933 [1, 4]: <1000 M⁻¹
Binding constant for sugar chain No. 001 ([1]; sugar chain having no fucose): <1000 M⁻¹
Binding constant for sugar chain No. 002 ([1]; sugar chain having no fucose): <1000 M⁻¹
Binding constant for sugar chain No. 003 ([1]; sugar chain having no fucose): <1000 M⁻¹
Binding constant for sugar chain No. 004 ([1]; sugar chain having no fucose): <1000 M⁻¹
Binding constant for sugar chain No. 005 ([1]; sugar chain having no fucose): <1000 M⁻¹
Binding constant for sugar chain No. 006 ([1]; sugar chain having no fucose): <1000 M⁻¹
Binding constant for sugar chain No. 007 ([1]; sugar chain having no fucose): <1000 M⁻¹
Binding constant for sugar chain No. 008 ([1]; sugar chain having no fucose): <1000 M⁻¹
Binding constant for sugar chain No. 009 ([1]; sugar chain having no fucose): <1000 M⁻¹
Binding constant for sugar chain No. 010 ([1]; sugar chain having no fucose): <1000 M⁻¹
Binding constant for sugar chain No. 011 ([1]; sugar chain having no fucose): <1000 M⁻¹
Binding constant for sugar chain No. 012 ([1]; sugar chain having no fucose): <1000 M⁻¹
Binding constant for sugar chain No. 013 ([1]; sugar chain having no fucose): <1000 M⁻¹
Binding constant for sugar chain No. 014 ([1]; sugar chain having no fucose): <1000 M⁻¹
Binding constant for sugar chain No. 101 ([1]; sugar chain having no fucose): <1000 M⁻¹
Binding constant for sugar chain No. 103 ([1]; sugar chain having no fucose): <1000 M⁻¹
Binding constant for sugar chain No. 104 ([1]; sugar chain having no fucose): <1000 M⁻¹
Binding constant for sugar chain No. 105 ([1]; sugar chain having no fucose): <1000 M⁻¹
Binding constant for sugar chain No. 107 ([1]; sugar chain having no fucose): <1000 M⁻¹
Binding constant for sugar chain No. 108 ([1]; sugar chain having no fucose): <1000 M⁻¹
Binding constant for sugar chain No. 301 ([1]; sugar chain having no fucose): <1000 M⁻¹
Binding constant for sugar chain No. 304 ([1]; sugar chain having no fucose): <1000 M⁻¹
Binding constant for sugar chain No. 305 ([1]; sugar chain having no fucose): <1000 M⁻¹
Binding constant for sugar chain No. 307 ([1]; sugar chain having no fucose): <1000 M⁻¹
Binding constant for sugar chain No. 308 ([1]; sugar chain having no fucose): <1000 M⁻¹
Binding constant for sugar chain No. 313 ([1]; sugar chain having no fucose): <1000 M⁻¹
Binding constant for sugar chain No. 314 ([1]; sugar chain having no fucose): <1000 M⁻¹
Binding constant for sugar chain No. 323 ([1]; sugar chain having no fucose): <1000 M⁻¹
Binding constant for sugar chain No. 501 ([1]; sugar chain having no fucose): <1000 M⁻¹
Binding constant for sugar chain No. 502 ([1]; sugar chain having no fucose): <1000 M⁻¹
Binding constant for sugar chain No. 503 ([1]; sugar chain having no fucose): <1000 M⁻¹
Binding constant for sugar chain No. 504 ([1]; sugar chain having no fucose): <1000 M⁻¹
Binding constant for sugar chain No. 701 ([1]; sugar chain having no fucose): <1000 M⁻¹
Binding constant for sugar chain No. 702 ([1]; sugar chain having no fucose): <1000 M⁻¹
Binding constant for sugar chain No. 703 ([1]; sugar chain having no fucose): <1000 M⁻¹
Binding constant for sugar chain No. 704 ([1]; sugar chain having no fucose): <1000 M⁻¹
Binding constant for sugar chain No. 705 ([1]; sugar chain having no fucose): <1000 M⁻¹
Binding constant for sugar chain No. 706 ([1]; sugar chain having no fucose): <1000 M⁻¹
Binding constant for sugar chain No. 707 ([1]; sugar chain having no fucose): <1000 M⁻¹
Binding constant for sugar chain No. 708 ([1]; sugar chain having no fucose): <1000 M⁻¹
Binding constant for sugar chain No. 709 ([1]; sugar chain having no fucose): <1000 M⁻¹
Binding constant for sugar chain No. 710 ([1]; sugar chain having no fucose): <1000 M⁻¹
Binding constant for sugar chain No. 711 ([1]; sugar chain having no fucose): <1000 M⁻¹
Binding constant for sugar chain No. 712 ([1]; sugar chain having no fucose): <1000 M⁻¹
Binding constant for sugar chain No. 713 ([1]; sugar chain having no fucose): <1000 M⁻¹
Binding constant for sugar chain No. 715 ([1]; sugar chain having no fucose): <1000 M⁻¹
Binding constant for sugar chain No. 716 ([1]; sugar chain having no fucose): <1000 M⁻¹
Binding constant for sugar chain No. 717 ([1]; sugar chain having no fucose): <1000 M⁻¹
Binding constant for sugar chain No. 724 ([1]; sugar chain having no fucose): <1000 M⁻¹
Binding constant for sugar chain No. 725 ([1]; sugar chain having no fucose): <1000 M⁻¹
Binding constant for sugar chain No. 732 ([1]; sugar chain having no fucose): <1000 M⁻¹
Binding constant for sugar chain No. 733 ([1]; sugar chain having no fucose): <1000 M⁻¹
Binding constant for sugar chain No. 734 ([1]; sugar chain having no fucose): <1000 M⁻¹
Binding constant for sugar chain No. 735 ([1]; sugar chain having no fucose): <1000 M⁻¹
Binding constant for sugar chain No. 736 ([1]; sugar chain having no fucose): <1000 M⁻¹
Binding constant for sugar chain No. 737 ([1]; sugar chain having no fucose): <1000 M⁻¹
Binding constant for sugar chain No. 738 ([1]; sugar chain having no fucose): <1000 M⁻¹
Binding constant for sugar chain No. 901 ([1]; sugar chain having no fucose): <1000 M⁻¹
Binding constant for sugar chain No. 902 ([1]; sugar chain having no fucose): <1000 M⁻¹
Binding constant for sugar chain No. 903 ([1]; sugar chain having no fucose): <1000 M⁻¹
Binding constant for sugar chain No. 905 ([1]; sugar chain having no fucose): <1000 M⁻¹
Binding constant for sugar chain No. 906 ([1]; sugar chain having no fucose): <1000 M⁻¹
Binding constant for sugar chain No. 907 ([1]; sugar chain having no fucose): <1000 M⁻¹
Binding constant for sugar chain No. 015 ([1]; sugar chain having α1→6 fucose): 49000 M⁻¹
Binding constant for sugar chain No. 201 ([1]; sugar chain having α1→6 fucose): 64000 M⁻¹
Binding constant for sugar chain No. 202 ([1]; sugar chain having α1→6 fucose): 61000 M⁻¹
Binding constant for sugar chain No. 203 ([1]; sugar chain having α1→6 fucose): 52000 M⁻¹
Binding constant for sugar chain No. 401 ([1]; sugar chain having α1→6 fucose): 57000 M⁻¹
Binding constant for sugar chain No. 402 ([1]; sugar chain having α1→6 fucose): 44000 M⁻¹
Binding constant for sugar chain No. 403 ([1]; sugar chain having α1→6 fucose): 56000 M⁻¹
Binding constant for sugar chain No. 404 ([1]; sugar chain having α1→6 fucose): 58000 M⁻¹
Binding constant for sugar chain No. 405 ([1]; sugar chain having α1→6 fucose): 54000 M⁻¹
Binding constant for sugar chain No. 406 ([1]; sugar chain having α1→6 fucose): 38000 M⁻¹
Binding constant for sugar chain No. 407 ([1]; sugar chain having α1→6 fucose): 10000 M⁻¹
Binding constant for sugar chain No. 410 ([1]; sugar chain having α1→6 fucose): 39000 M⁻¹
Binding constant for sugar chain No. 418 ([1]; sugar chain having α1→6 fucose): 4300 M⁻¹
Binding constant for sugar chain No. 601 ([1]; sugar chain having α1→6 fucose): 10000 M⁻¹
Binding constant for sugar chain No. 602 ([1]; sugar chain having α1→6 fucose): 32000 M⁻¹
Binding constant for sugar chain No. 728 [2]: <1000 M⁻¹
Substance: SRL: fucose α1→6 specific lectin that can be extracted from Stropharia rugosoannulata, SEQ ID No. 2
Δ (=A − B) ([3]; pH in lectin reaction 7.4): 126.3 U/mL
Δ (=A − B) ([3]; pH in lectin reaction 9.6): 217.7 U/mL
lectin reaction value B of Healthy 1 ([3]; pH in lectin reaction 7.4): 20.0 U/mL
lectin reaction value B of Healthy 1 ([3]; pH in lectin reaction 9.6): 16.8 U/mL
lectin reaction value A of Prostate cancer 4 ([3]; pH in lectin reaction 7.4): 146.3 U/mL
lectin reaction value A of Prostate cancer 4 ([3]; pH in lectin reaction 9.6): 234.5 U/mL
